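Grown in 96-well plates, cells were treated for 48 hours with each compound at five concentrations. Insufficient inhibition: endpoint recorded as highest concentration tested. TGI marks complete inhibition of growth.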
Columns and labels:
Experiment in all cases: DTP human tumour cell line panel, 48 h
[1] = tested on: SNB-19 CNS
[2] = tested on: SK-MEL-28 melanoma
[3] = tested on: IGROV1 ovarian
[4] = tested on: EKVX NSCLC
[5] = tested on: MDA-MB-435
[6] = tested on: OVCAR-8 ovarian
[7] = tested on: 786-0 renal
[8] = tested on: DU-145 prostate
[9] = tested on: A498 renal
[10] = tested on: K-562 leukemia
[11] = tested on: SW-620 colon
[12] = tested on: CCRF-CEM leukemia
[13] = tested on: NCI-H23 lung
[14] = tested on: A549 NSCLC
[15] = tested on: OVCAR-3 ovarian
[16] = tested on: OVCAR-4 ovarian
[17] = tested on: TK-10 renal
[18] = tested on: T-47D breast
[19] = tested on: SK-OV-3 ovarian
[20] = tested on: MDA-N
[21] = tested on: HCT-15 colon
[22] = tested on: HT29 colon
[23] = tested on: HOP-62 NSCLC
[24] = tested on: U251 CNS
[25] = tested on: HS 578T breast
[26] = tested on: NCI-H460 lung
[27] = tested on: MDA-MB-231 breast
[28] = tested on: SF-295 CNS
[29] = tested on: HOP-92 NSCLC
[30] = tested on: ACHN renal
[31] = tested on: MALME-3M melanoma
[32] = tested on: SF-539 CNS
[33] = tested on: NCI/ADR-RES ovarian
[34] = tested on: M14 melanoma
[35] = tested on: HL-60(TB) leukemia
[36] = tested on: PC-3 prostate
[37] = tested on: UACC-257 melanoma
[38] = tested on: RPMI-8226 leukemia
[39] = tested on: HCT-116 colon
[40] = tested on: UO-31 renal
[41] = tested on: NCI-H226 lung
[42] = tested on: SK-MEL-2 melanoma
[43] = tested on: SK-MEL-5 melanoma
[44] = tested on: SN12C renal
[45] = tested on: SR leukemia
[46] = tested on: RXF 393 renal
[47] = tested on: MOLT-4 leukemia
[48] = tested on: SF-268 CNS
[49] = tested on: HCC-2998 colon
[50] = tested on: OVCAR-5 ovarian
[51] = tested on: LOX IMVI melanoma
[52] = tested on: CAKI-1 renal
[53] = tested on: COLO 205 colon
[54] = tested on: NCI-H522 lung
[55] = tested on: KM12 colon

Measured: TGI

COC(=O)[C@@H]1CN(C(=O)CCc2ccccc2)C(=O)N1
> 100 µM: all assays above

— PubChem BioAssay (NCI)
